# Numbers after ± are expanded uncertainties.
# Experiment: xn = mol fraction of the nth substance listed
# Conditions: 288.15 K; 100 kPa; Liquid; Capillary tube (Ostwald / Ubbelohde) method; x1 = 1
row,SMILES,viscosity [mPa·s]
1,CCCCCO [pentan-1-ol] + CCC(C)CO,4.698 ± 0.19
2,CCCCCO [pentan-1-ol] + CCCC(C)O,4.698 ± 0.19
3,CCCC(C)O (centres undefined) [pentan-2-ol] + CCC(C)CO,5.057 ± 0.2

# Same assay, conditions: 288.15 K; 100 kPa; Liquid; Vibrating tube method; x1 = 1
row,SMILES,mass density [kg/m3]
1,CCCCCO [pentan-1-ol] + CCC(C)CO,818.56 ± 0.79
2,CCCCCO [pentan-1-ol] + CCCC(C)O,818.56 ± 0.79
3,CCCC(C)O (centres undefined) [pentan-2-ol] + CCC(C)CO,813.34 ± 0.79

# Same assay, conditions: 293.15 K; 100 kPa; Liquid; Capillary tube (Ostwald / Ubbelohde) method; x1 = 1
row,SMILES,viscosity [mPa·s]
1,CCCCCO [pentan-1-ol] + CCC(C)CO,4.043 ± 0.16
2,CCCCCO [pentan-1-ol] + CCCC(C)O,4.043 ± 0.16
3,CCCC(C)O (centres undefined) [pentan-2-ol] + CCC(C)CO,4.174 ± 0.17

# Same assay, conditions: 293.15 K; 100 kPa; Liquid; Vibrating tube method; x1 = 1
row,SMILES,mass density [kg/m3]
1,CCCCCO [pentan-1-ol] + CCC(C)CO,814.92 ± 0.79
2,CCCCCO [pentan-1-ol] + CCCC(C)O,814.92 ± 0.79
3,CCCC(C)O (centres undefined) [pentan-2-ol] + CCC(C)CO,809.38 ± 0.78

# Same assay, conditions: 298.15 K; 100 kPa; Liquid; Capillary tube (Ostwald / Ubbelohde) method; x1 = 1
row,SMILES,viscosity [mPa·s]
1,CCCCCO [pentan-1-ol] + CCC(C)CO,3.501 ± 0.14
2,CCCCCO [pentan-1-ol] + CCCC(C)O,3.501 ± 0.14
3,CCCC(C)O (centres undefined) [pentan-2-ol] + CCC(C)CO,3.398 ± 0.14

# Same assay, conditions: 298.15 K; 100 kPa; Liquid; Vibrating tube method; x1 = 1
row,SMILES,mass density [kg/m3]
1,CCCCCO [pentan-1-ol] + CCC(C)CO,811.26 ± 0.79
2,CCCCCO [pentan-1-ol] + CCCC(C)O,811.26 ± 0.79
3,CCCC(C)O (centres undefined) [pentan-2-ol] + CCC(C)CO,805.35 ± 0.78

# Same assay, conditions: 303.15 K; 100 kPa; Liquid; Capillary tube (Ostwald / Ubbelohde) method; x1 = 1
row,SMILES,viscosity [mPa·s]
1,CCCCCO [pentan-1-ol] + CCC(C)CO,3.028 ± 0.12
2,CCCCCO [pentan-1-ol] + CCCC(C)O,3.028 ± 0.12
3,CCCC(C)O (centres undefined) [pentan-2-ol] + CCC(C)CO,2.82 ± 0.11

# Same assay, conditions: 303.15 K; 100 kPa; Liquid; Vibrating tube method; x1 = 1
row,SMILES,mass density [kg/m3]
1,CCCCCO [pentan-1-ol] + CCC(C)CO,807.57 ± 0.78
2,CCCCCO [pentan-1-ol] + CCCC(C)O,807.57 ± 0.78
3,CCCC(C)O (centres undefined) [pentan-2-ol] + CCC(C)CO,801.24 ± 0.78

# Same assay, conditions: 308.15 K; 100 kPa; Liquid; Capillary tube (Ostwald / Ubbelohde) method; x1 = 1
row,SMILES,viscosity [mPa·s]
1,CCCCCO [pentan-1-ol] + CCC(C)CO,2.671 ± 0.11
2,CCCCCO [pentan-1-ol] + CCCC(C)O,2.671 ± 0.11
3,CCCC(C)O (centres undefined) [pentan-2-ol] + CCC(C)CO,2.336 ± 0.094

# Same assay, conditions: 308.15 K; 100 kPa; Liquid; Vibrating tube method; x1 = 1
row,SMILES,mass density [kg/m3]
1,CCCCCO [pentan-1-ol] + CCC(C)CO,803.86 ± 0.78
2,CCCCCO [pentan-1-ol] + CCCC(C)O,803.86 ± 0.78
3,CCCC(C)O (centres undefined) [pentan-2-ol] + CCC(C)CO,797.05 ± 0.77

# Same assay, conditions: 313.15 K; 100 kPa; Liquid; Capillary tube (Ostwald / Ubbelohde) method; x1 = 1
row,SMILES,viscosity [mPa·s]
1,CCCCCO [pentan-1-ol] + CCC(C)CO,2.335 ± 0.094
2,CCCCCO [pentan-1-ol] + CCCC(C)O,2.335 ± 0.094
3,CCCC(C)O (centres undefined) [pentan-2-ol] + CCC(C)CO,1.99 ± 0.08

# Same assay, conditions: 313.15 K; 100 kPa; Liquid; Vibrating tube method; x1 = 1
row,SMILES,mass density [kg/m3]
1,CCCCCO [pentan-1-ol] + CCC(C)CO,800.11 ± 0.78
2,CCCCCO [pentan-1-ol] + CCCC(C)O,800.11 ± 0.78
3,CCCC(C)O (centres undefined) [pentan-2-ol] + CCC(C)CO,792.78 ± 0.77

# Same assay, conditions: 318.15 K; 100 kPa; Liquid; Capillary tube (Ostwald / Ubbelohde) method; x1 = 1
row,SMILES,viscosity [mPa·s]
1,CCCCCO [pentan-1-ol] + CCC(C)CO,2.052 ± 0.083
2,CCCCCO [pentan-1-ol] + CCCC(C)O,2.052 ± 0.083
3,CCCC(C)O (centres undefined) [pentan-2-ol] + CCC(C)CO,1.706 ± 0.069

# Same assay, conditions: 318.15 K; 100 kPa; Liquid; Vibrating tube method; x1 = 1
row,SMILES,mass density [kg/m3]
1,CCCCCO [pentan-1-ol] + CCC(C)CO,796.32 ± 0.77
2,CCCCCO [pentan-1-ol] + CCCC(C)O,796.32 ± 0.77
3,CCCC(C)O (centres undefined) [pentan-2-ol] + CCC(C)CO,788.42 ± 0.77

# Same assay, conditions: 323.15 K; 100 kPa; Liquid; Capillary tube (Ostwald / Ubbelohde) method; x1 = 1
row,SMILES,viscosity [mPa·s]
1,CCCCCO [pentan-1-ol] + CCC(C)CO,1.81 ± 0.073
2,CCCCCO [pentan-1-ol] + CCCC(C)O,1.81 ± 0.073
3,CCCC(C)O (centres undefined) [pentan-2-ol] + CCC(C)CO,1.472 ± 0.06

# Same assay, conditions: 323.15 K; 100 kPa; Liquid; Vibrating tube method; x1 = 1
row,SMILES,mass density [kg/m3]
1,CCCCCO [pentan-1-ol] + CCC(C)CO,792.48 ± 0.77
2,CCCCCO [pentan-1-ol] + CCCC(C)O,792.48 ± 0.77
3,CCCC(C)O (centres undefined) [pentan-2-ol] + CCC(C)CO,783.99 ± 0.76

# Same assay, conditions: 328.15 K; 100 kPa; Liquid; Capillary tube (Ostwald / Ubbelohde) method; x1 = 1
row,SMILES,viscosity [mPa·s]
1,CCCCCO [pentan-1-ol] + CCC(C)CO,1.607 ± 0.065
2,CCCCCO [pentan-1-ol] + CCCC(C)O,1.607 ± 0.065
3,CCCC(C)O (centres undefined) [pentan-2-ol] + CCC(C)CO,1.306 ± 0.053

# Same assay, conditions: 328.15 K; 100 kPa; Liquid; Vibrating tube method; x1 = 1
row,SMILES,mass density [kg/m3]
1,CCCCCO [pentan-1-ol] + CCC(C)CO,788.61 ± 0.76
2,CCCCCO [pentan-1-ol] + CCCC(C)O,788.61 ± 0.76
3,CCCC(C)O (centres undefined) [pentan-2-ol] + CCC(C)CO,779.46 ± 0.76

# From the NIST ThermoML archive (doi:10.1021/acs.jced.8b00979)
